“Also recorded” adds a separate entry of the source.
How the values were obtained:
ICR mice [1] = experiment: Elevated plus-maze (EPM); format: in vivo; conditions: 10 mg/kg
[2] = test system: peripheral tissue eCB, NAE, MAG and PG levels; experiment: Peripheral tissue NAE, MAG and PG levels after i.p. injection; format: in vivo, mice
Description: Mice were sacrificed by cervical dislocation and decapitation. The brain, lungs, liver, stomach, small intestines, and kidneys were then rapidly removed and frozen on a metal block in dry ice. The tissue was then placed in a tube and stored at −80° C. until extraction, usually one day after harvesting. For PG and eCB analysis, lipid extraction from tissue was carried out as described in Patel et al., 2009.
Analytes were quantified using LC-MS/MS on a Quantum triple-quadrupole mass spectrometer in positive-ion mode using selected reaction monitoring. Detection of eicosanoids was performed as described in Kingsley & Marnett, 2007. For fatty acid analysis the mobile phases used were 80 μM AgOAc with 0.1% (v/v) acetic acid in H2O (solvent A) and 120 μM AgOAc with 0.1% (v/v) acetic acid in MeOH (solvent B). The analytes were eluted using a gradient from 20% A to 99% B over 5 minutes. The transitions used were m/z 300→282 for PEA, m/z 328→310 for SEA, m/z 434→416 for OEA, m/z 456→438 for AEA, m/z 464→446 for AEA-d8, m/z 331→257 for 2-PG, m/z 359→285 for 2-SG, m/z 463→389 for 2-OG, m/z 485→411 for 2-AG, m/z 493→419 for 2-AG-d8, m/z 519→409 for AA, and m/z 527→417 for AA-d8. Peak areas for the analytes were normalized to the appropriate internal standard and then normalized to tissue mass for in vivo samples. […]

ICR mice [3] = experiment: Novel object recognition; format: in vivo; conditions: 10 mg/kg i.p., prior to object memory retrieval
Description: Mice were handled 4 days prior to training for at least 1 min per day. During pre-training, mice were placed in an open Plexiglas rectangular chamber for 10 minutes in order for the mice to become familiar with the testing environment. Twenty-four hours later, the mice were placed into the same rectangular chamber with two identical sample objects, yellow rubber ducks, for 10 minutes in order for the mice to become familiar with the objects. During training, the sample objects were placed in opposite corners in the back of the chamber 5 cm from each wall and secured by weight to the floor of the chamber. Twenty-four hours later, the mice were placed into the chamber again with one sample or familiar object and a novel object, a white leaf statue, for 5 minutes. During testing, the objects were placed in opposite corners in the back of the chamber 5 cm from each wall and secured by weight to the floor of the chamber.
To determine exploration time with the sample and novel objects, each mouse was timed when interacting with the sample or novel object when the nose of the mouse was in contact with the object or directed toward the object within a 2 cm distance of the object. […] In addition, a discrimination ratio (e.g., ratio of a mouse's interaction with a novel object to that mouse's total interaction with both sample and novel objects) was determined. […]

Human DAGLα = biological target: T1, Human DAGLα (Homo sapiens, UniProt Q9Y4D2); experiment: DAGLα activity (Compound A); format: biochemical; conditions: in vitro
T1 construct: made in house; host or cells: HEK293T cells (transfected, pcDNA3.1D); membranes used
T1 sequence (Q9Y4D2 1-1042): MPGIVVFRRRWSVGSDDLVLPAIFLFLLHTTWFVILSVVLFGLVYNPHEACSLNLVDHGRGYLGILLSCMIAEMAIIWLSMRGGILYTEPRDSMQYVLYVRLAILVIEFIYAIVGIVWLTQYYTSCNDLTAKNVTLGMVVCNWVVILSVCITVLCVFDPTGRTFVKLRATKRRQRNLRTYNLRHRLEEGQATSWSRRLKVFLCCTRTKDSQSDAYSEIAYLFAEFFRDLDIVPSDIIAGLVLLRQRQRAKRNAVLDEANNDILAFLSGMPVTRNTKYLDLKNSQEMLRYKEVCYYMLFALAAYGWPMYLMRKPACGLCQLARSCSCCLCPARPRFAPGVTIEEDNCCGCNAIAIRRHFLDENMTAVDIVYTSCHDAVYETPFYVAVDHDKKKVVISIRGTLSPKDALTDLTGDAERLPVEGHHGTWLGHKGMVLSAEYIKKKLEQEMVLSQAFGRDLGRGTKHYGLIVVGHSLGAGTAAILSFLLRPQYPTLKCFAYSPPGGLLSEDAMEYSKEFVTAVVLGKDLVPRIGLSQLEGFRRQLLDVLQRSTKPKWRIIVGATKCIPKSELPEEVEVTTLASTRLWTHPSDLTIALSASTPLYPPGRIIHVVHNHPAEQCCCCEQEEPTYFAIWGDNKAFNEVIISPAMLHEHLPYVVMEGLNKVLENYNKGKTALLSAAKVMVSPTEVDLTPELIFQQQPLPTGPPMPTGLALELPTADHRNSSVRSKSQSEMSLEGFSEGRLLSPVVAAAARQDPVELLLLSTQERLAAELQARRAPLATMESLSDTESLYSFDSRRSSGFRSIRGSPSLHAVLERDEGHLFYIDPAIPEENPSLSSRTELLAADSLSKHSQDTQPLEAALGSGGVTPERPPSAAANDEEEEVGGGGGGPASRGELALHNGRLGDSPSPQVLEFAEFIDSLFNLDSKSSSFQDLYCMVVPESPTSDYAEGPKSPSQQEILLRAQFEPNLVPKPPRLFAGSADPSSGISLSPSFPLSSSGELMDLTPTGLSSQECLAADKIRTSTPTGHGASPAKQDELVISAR

[4] = Gastrointestinal hemorrhage; conditions: in vivo
ICR mice [5] = experiment: Novel open field test; format: in vivo
Description: Animals were tested for open-field activity in a novel environment one hour after i.p. injection of compound as described in Sumislawski et al., 2011. Briefly, one-hour sessions were performed using automated experimental chambers (27.9 27.9 cm; MEDOFA-510; MED Associates, Ga., Vermont, United States of America) under constant illumination within a sound-attenuated room. Analysis of open field activity was performed using Activity Monitor v5.10 (MED Associates).

[6] = 10 mg/kg, two hours after injection

In the case of COc1ccc2c(c1)c(CC(=O)N1CCOCC1)c(C)n2C(=O)c1ccc(Cl)cc1 [Compound A, 2-[1-(4-Chloro-benzoyl)-5-methoxy-2-methyl-1H-indol-3-yl]-1-morpholin-4-yl-ethanone], the Open arm latency (ICR mice [1]) is reported as “significantly reduced; also recorded: decreased”, the “Other EPM parameters (open arm time, total distance traveled)” value (ICR mice [1]) is reported as “did not affect; also recorded: did not increase” and the “AEA levels in the kidney” value [2, 6] is reported as “significantly increased”. The “AEA levels in the lung” value [2, 6] was “significantly increased”, the “AEA levels in the small intestine” value [2, 6] was “significantly increased” and the “AEA levels in the stomach” value [2, 6] was “significantly increased”. The “Liver NAE levels” value ([2]; liver) was “did not affect”, the “2-AG or any other MAG in any tissue” value ([2]; peripheral tissues, 10 mg/kg) was “no effect” and the “Levels of any other NAE in any tissue” value ([2]; peripheral tissues, 10 mg/kg) was “did not affect”. The “PG levels in peripheral tissues” value ([2]; stomach, heart, kidney, lung, intestine) was “no effect”, the “Memory deficits in the novel object recognition assay” value (ICR mice [3]) was “did not induce memory deficits” and the “Inhibition of DAGLα” value (Human DAGLα) was “did not inhibit”. For the same compound, the Gastrointestinal hemorrhage [4] was “not to cause gastrointestinal hemorrhage”, the “Center distance travelled and center time in the open-field arena” value (ICR mice [5]; 10 mg/kg) was “increased” and the “Open field behavior in mice treated with Rimonabant” value (ICR mice [5]; Rimonabant 3 mg/kg) was “no significant behavioral effect”. The “Exploratory behavior and center time exploration in the open field (Example 8)” value (ICR mice [5]; most pronounced during minutes 40-60) was “dose-dependently increased”, the “Open field behavior (center distance or time) in CB1^(−/−) mice” value (ICR mice [5]; mouse, in vivo) was “did not produce any behavioral effect; also recorded: did not increase” and the “Open field behavior in COX-2^(−/−) mice” value (ICR mice [5]; mouse, in vivo) was “did not produce any significant behavioral effects”. The “Open field behavior in vehicle-pretreated mice” value (ICR mice [5]; mouse, in vivo) was “exerting anxiolytic actions”, the “Open field behavior in wild type littermates of COX-2^(−/−) mice” value (ICR mice [5]; mouse, in vivo) was “normal anxiolytic-like response” and the Hypolocomotion (ICR mice [5]; open field data) was “did not cause hypolocomotion”.

Source: patent publication US20150183737A1, “COMPOSITIONS AND METHODS FOR SUBSTRATE-SELECTIVE INHIBITION OF ENDOCANNABINOID OXYGENATION” (Vanderbilt University, priority 2012, published 2015)
